Source: US9187474B2, “Raf inhibitor compounds” (Deciphera Pharmaceuticals, LLC, priority 2012, dated 2015)
Where a name gives a salt, the structure may show the parent alone. Read-outs that look alike come from different tables or passages of the source.

What was measured:
[1] = test system: phospho-ERK in A375 (B-Raf V600E) xenograft; assay: A375 mouse xenograft pharmacodynamic assay (tumor pERK by ELISA); assay type: in vivo, mice; conditions: 2 h post dose, vs vehicle, read-out: Measured pERK inhibition 2 h post dose; for inhibition in vivo at 20 mg/kg: A-375, 20 mg/kg oral
Procedure: To evaluate the in vivo pharmacodynamic (PD) effects of compounds of Formula I, an A375 (B-Raf V600E) xenograft model is employed. Briefly, 10×10^6 A375 tumor cells (ATCC) are prepared in a 1:1 matrigel mix (0.2 mL total volume) and implanted by subcutaneous injection in hind leg of nude female mice. A total of 4 mice each for each dosing group are employed. Treatment is initiated with oral administration (gavage) of test compound or vehicle (20% captisol, 25 mM phosphate, pH2.0) in 0.2 mL volume when average tumor size reaches approximately 300 mg. After a fixed time interval, the tumors are harvested and the phospho-ERK levels are measured by ELISA (Enzyme-linked immunosorbent assay). Treated groups are compared to the vehicle control group to calculate % inhibition.

[2] = test system: phospho-ERK in HCT-116 cells; assay: HCT-116 cell pERK assay (AlphaScreen SureFire); assay type: cell-based; conditions: for IC50: Homo sapiens, HCT-116 cells, B-Raf wild type, K-Ras mutation, 4 hours, read-out: IC50 reduction of phospho-ERK signal
Procedure: Examples of Formula I are tested against HCT-116 cells harboring wild type B-Raf and K-Ras mutation. The phospho-ERK activities are evaluated as described below.
HCT-116 cells (catalog #CCL-247) are obtained from the American Type Culture Collection (ATCC, Manassas, Va.). Briefly, cells are grown in McCoy's 5A supplemented with 10% characterized fetal bovine serum (Invitrogen, Carlsbad, Calif.), and 1% Penicillin/Streptomycin/L-Glutamine at 37 degrees Celsius, 5% CO2, and 95% humidity. Cells are allowed to expand until reaching 75-90% confluency at which point they are subcultured or harvested for assay use. HCT-116 cells suspended in complete media are added to 384-well tissue culture treated plates (3×10^5 cells/mL; 7,500 cells per well). The cells are incubated overnight at 37 degrees Celsius, 5% CO2, and 95% humidity. Next, test compound or DMSO diluted in complete media is added to the wells (0.25% final DMSO concentration). The plates are then incubated for 4 hours at 37 degrees Celsius, 5% CO2, and 95% humidity. Following compound incubation, the cells are lysed at 4° C. for 20 minutes with shaking Cell lysates are centrifuged and the supernatant is transferred to a new plate. An aliquot of each lysate is transferred to a white 384-well assay plate. Using the AlphaScreen SureFire pERK kit (Perkin-Elmer, Waltham, Mass.), an acceptor bead mixture is added to each well and incubated for 2 h at room temperature in the dark. A donor bead mixture is then added to each well and incubated for 2 h at room temperature in the dark. Plates are read using a Synergy2 plate reader (Biotek, Winooski, Vt.) in Plate Mode with Timing Control. Read: (F)1: excitation: 680/30 nm, emission: Plug. 2: Excitation: Plug, emission: 570/100 nm. Top mirror 635 nm. Data is analyzed using Prism software (Graphpad, San Diego, Calif.) to calculate IC50 values and Excel software (Microsoft, Redmond, Wash.) to calculate stimulation compared to control.

A375res cells [3] = assay: Proliferation assay in vemurafenib-resistant A375res melanoma cells; conditions: for IC50: Homo sapiens, 72 h
Excerpt: (§2) A vemurafenib-resistant cell line is generated by chronic treatment of the human melanoma cell line A375 (ATCC) harboring the B-Raf V600E mutation with increasing concentrations PLX4720.

A375res cells [4] = test system: A375res cells
Excerpt: as §2

A375 cells = assay: A375 cell proliferation assay (72 hour); assay type: cell-based; conditions: Homo sapiens, A-375, parental A375 cells
Procedure: A375 cells (catalog #CRL-1619) are obtained from the American Type Culture Collection (ATCC, Manassas, Va.). Briefly, cells are grown in DMEM High Glucose supplemented with 10% characterized fetal bovine serum (Invitrogen, Carlsbad, Calif.) and 1% Penicillin/Streptomycin/L-Glutamine at 37 degrees Celsius, 5% CO2, and 95% humidity. Cells are allowed to expand until reaching 70-95% confluency at which point they are subcultured or harvested for assay use. A serial dilution of test compound is dispensed into a 384-well black clear bottom plate in triplicate. Six hundred twenty-five cells are added per well in 50 μL complete growth medium in the 384-well plate. Plates are incubated for 67 hours at 37 degrees Celsius, 5% CO2, and 95% humidity. […] Plates are read on a Synergy2 reader (Biotek, Winooski, Vt.) using an excitation of 540 nm and an emission of 600 nm. Data is analyzed using Prism software (Graphpad, San Diego, Calif.) to calculate IC50 values.

[5] = Body weight in A375 mouse xenograft efficacy model; assay type: in vivo, mice; conditions: oral, twice a day at 15 or 30 mg/kg, 21 days
Procedure: (§1) To further evaluate in vivo activity of compounds of Formula I, an A375 xenograft tumor model is utilized. Briefly, 10×10^6 cells in a 1:1 matrigel mix (0.2 mL total volume) are implanted by subcutaneous injection in the hind leg of nude female mice. A total of 8-10 mice in each group are used. Treatment is initiated with oral administration (gavage) of a test compound or vehicle (20% captisol, 25 mM phosphate, pH2.0) in 0.2 mL volume when tumor size reaches approximately 300-500 mg. Test compound is orally dosed twice or thrice a day for 21 days. Tumor growth and body weight are monitored over time to evaluate efficacy and signs of toxicity. Bidimensional measurements of tumors are performed twice a week and tumor volumes are calculated based on the following formula: (Tumor Volume)=[(L)×(W^2)×(π/6)] where L is mid-axis length and W is mid-axis width. Tumor volume data are transformed to a log scale to equalize variance across time and treatment groups. The log volume data are analyzed with a two-way repeated measures analysis of variance by time and treatment using the MIXED procedures in SAS software (version 8.2). The correlation model for the repeated measures is spatial power. Treated groups are compared to the control group at each time point. The MIXED procedure is also used separately for each treatment group to calculate adjusted means and standard errors at each time point. Both analyses account for the autocorrelation within each animal and the loss of data that occurs when animals with large tumors are removed from the study early. The adjusted means and standard errors are plotted for each treatment group versus time.

A375 xenograft tumor = assay: A375 mouse xenograft efficacy model; assay type: in vivo, mice; conditions: oral, twice a day at 15 or 30 mg/kg, 21 days
Procedure: as §1

| Compound | IC50 [2] | IC50 (A375res cells [3]; read-out: absolute IC50 values) | IC50 shift A375 to A375res (A375res cells [4]) | inhibition in vivo at 20 mg/kg [1] | other results |
| --- | --- | --- | --- | --- | --- |
| CCCS(=O)(=O)Nc1ccc(F)c(C(=O)c2c[nH]c3ncc(Cl)cc23)c1F [PLX4720, N-[3-(5-chloro-1H-pyrrolo[2,3-b]pyridine-3-carbonyl)-2,4-difluorophenyl]propane-1-sulfonamide, reference compound] |  |  |  |  | IC50 (A375 cells): 369 nM; IC50 shift A375 to A375res (A375res cells [3]; 72 hour proliferation assay): more than 27 fold; IC50 (A375res cells [3]; read-out: IC50 proliferation): > 10000 nM |
| Cc1cc(F)c(NC(=O)NCCC(C)(C)F)cc1-c1cc2cnc(N)cc2nc1C [Example 79, 1-(5-(7-amino-2-methyl-1,6-naphthyridin-3-yl)-2-fluoro-4-methylphenyl)-3-(3-fluoro-3-methylbutyl)urea] | 2 to 96 nM | 9 to 504 nM | 0.5-4.9 fold | 87% | animal body weight loss [5]: minimal animal body weight loss; tumor growth (A375 xenograft tumor): tumor growth inhibition |
| Cc1nc2cc(NCCO)ncc2cc1-c1cc(NC(=O)NCCC(C)(C)C)c(F)cc1F [Example 47, 1-(2,4-difluoro-5-(7-(2-hydroxyethylamino)-2-methyl-1,6-naphthyridin-3-yl)phenyl)-3-(3,3-dimethylbutyl)urea] | 2 to 96 nM | 9 to 504 nM | 0.5-4.9 fold | 50% |  |
| CNc1cc2nc(C)c(-c3cc(NC(=O)NCCC(C)(C)OC)c(F)cc3F)cc2cn1 [Example 24, 1-(2,4-difluoro-5-(2-methyl-7 (methylamino)-1,6-naphthyridin-3-yl)phenyl)-3-(3-methoxy-3-methylbutyl)urea hydrochloride] | 2 to 96 nM | 9 to 504 nM |  | 45% |  |
| CCCS(=O)(=O)Nc1ccc(F)c(C(=O)c2c[nH]c3ncc(-c4ccc(Cl)cc4)cc23)c1F [vemurafenib, reference compound] |  |  | more than 57 fold |  | effect on pERK signal ([2]; at concentrations up to about 3 uM): stimulates the pERK signal; IC50 (A375 cells): 175 nM; IC50 (A375res cells [3]; read-out: IC50 proliferation): > 10000 nM |
| Cc1cc(F)c(NC(=O)NCCC(C)(C)C)cc1-c1cc2cnc(NCCO)cc2nc1C [Example 64, 1-(3,3-dimethylbutyl)-3-(2-fluoro-5-(7-((2-hydroxyethyl)amino)-2-methyl-1,6-naphthyridin-3-yl)-4-methylphenyl)urea] | 2 to 96 nM |  |  | 79% |  |

Now from value to compound, other results behind:

| IC50 [2] | IC50 (A375res cells [3]; read-out: absolute IC50 values) | IC50 shift A375 to A375res (A375res cells [4]) | Compound | inhibition in vivo at 20 mg/kg [1] | other results |
| --- | --- | --- | --- | --- | --- |
| 2 to 96 nM | 9 to 504 nM | 0.5-4.9 fold | CNc1cc2nc(C)c(-c3cc(NC(=O)NCCC(C)(C)C(F)(F)F)c(F)cc3C)cc2cn1 [Example 89, 1-(2-fluoro-4-methyl-5-(2-methyl-7-(methylamino)-1,6-naphthyridin-3-yl)phenyl)-3-(4,4,4-trifluoro-3,3-dimethylbutyl)urea hydrochloride] | 84% |  |
| 2 to 96 nM | 9 to 504 nM | 0.5-4.9 fold | CNc1cc2nc(C)c(-c3cc(NC(=O)NCCC(C)(C)OC)c(F)cc3C)cc2cn1 [Example 92, 1-(2-fluoro-4-methyl-5-(2-methyl-7-(methylamino)-1,6-naphthyridin-3-yl)phenyl)-3-(3-methoxy-3-methylbutyl)urea hydrochloride] | 77% |  |
| 2 to 96 nM | 9 to 504 nM | 0.5-4.9 fold | CNc1cc2nc(C)c(-c3cc(NC(=O)N[C@H]4C[C@](C)(F)C4)c(F)cc3C)cc2cn1 [Example 77, 1-(3-fluoro-cis(3-methylcyclobutyl))-3-(2-fluoro-4-methyl-5-(2-methyl-7-(methylamino)-1,6-naphthyridin-3-yl)phenyl)urea] | 96% |  |
| 2 to 96 nM | 9 to 504 nM | 0.5-4.9 fold | CNc1cc2nc(C)c(-c3cc(NC(=O)NCCC(C)(C)C#N)c(F)cc3C)cc2cn1 [Example 9, 1-(3-cyano-3-methylbutyl)-3-(2-fluoro-4-methyl-5-(2-methyl-7-(methylamino)-1,6-naphthyridin-3-yl)phenyl)urea] | 78% |  |
| 2 to 96 nM |  |  | CNc1cc2nc(C)c(-c3cc(NC(=O)NC[C@@H](O)C(C)(C)C)c(F)cc3C)cc2cn1 [Example 56, (S)-1-(2-fluoro-4-methyl-5-(2-methyl-7-(methylamino)-1,6-naphthyridin-3-yl)phenyl)-3-(2-hydroxy-3,3-dimethylbutyl)urea] |  | inhibition in vivo at 6 mg/kg ([1]; A-375, 6 mg/kg oral): 75% |
| 2 to 96 nM | 9 to 504 nM | 0.5-4.9 fold | CNc1cc2nc(C)c(-c3cc(NC(=O)NC4CCC(F)(F)CC4)c(F)cc3C)cc2cn1 [Example 12, 1-(4,4-difluorocyclohexyl)-3-(2-fluoro-4-methyl-5-(2-methyl-7-(methylamino)-1,6-naphthyridin-3-yl)phenyl)urea hydrochloride] | 58% |  |
| 2 to 96 nM | 9 to 504 nM | 0.5-4.9 fold | CNc1cc2nc(C)c(-c3cc(NC(=O)NC[C@H](O)C(C)(C)C)c(F)cc3C)cc2cn1 [Example 57, (R)-1-(2-fluoro-4-methyl-5-(2-methyl-7-(methylamino)-1,6-naphthyridin-3-yl)phenyl)-3-(2-hydroxy-3,3-dimethylbutyl)urea] | 96% |  |
